{
  "source": "the NIST ThermoML archive (doi:10.1021/je200565u)",
  "settings": "Liquid, Closed cell (Static) method",
  "note": "Numbers after ± are expanded uncertainties.",
  "data": [
    {"compound": "CCCCOCCO", "note": "[2-butoxyethan-1-ol]", "values": [
      {"measurement": "vapor or sublimation pressure", "setting": "441.3 K", "result": "93.9 ± 0.8", "unit": "kPa"},
      {"measurement": "vapor or sublimation pressure", "setting": "441.5 K", "result": "93.6 ± 0.8", "unit": "kPa"},
      {"measurement": "vapor or sublimation pressure", "setting": "442.1 K", "result": "94.1 ± 0.8", "unit": "kPa"}
    ]},
    {"compound": "CCOCCOC(C)=O", "note": "[2-ethoxyethyl ethanoate]", "values": [
      {"measurement": "vapor or sublimation pressure", "setting": "427.8 K", "result": "93.3 ± 0.8", "unit": "kPa"},
      {"measurement": "vapor or sublimation pressure", "setting": "428.3 K", "result": "93.7 ± 0.8", "unit": "kPa"},
      {"measurement": "vapor or sublimation pressure", "setting": "428.6 K", "result": "93.3 ± 0.8", "unit": "kPa"}
    ]},
    {"compound": "CCOCCO", "note": "[2-ethoxyethan-1-ol]", "values": [
      {"measurement": "vapor or sublimation pressure", "setting": "406.2 K", "result": "93.3 ± 0.8", "unit": "kPa"},
      {"measurement": "vapor or sublimation pressure", "setting": "406.9 K", "result": "93.3 ± 0.8", "unit": "kPa"},
      {"measurement": "vapor or sublimation pressure", "setting": "407.8 K", "result": "93.6 ± 0.8", "unit": "kPa"}
    ]},
    {"compound": "CCCCOCCOC(C)=O", "note": "[2-butoxyethyl acetate]", "values": [
      {"measurement": "vapor or sublimation pressure", "setting": "463 K", "result": "93.7 ± 0.8", "unit": "kPa"},
      {"measurement": "vapor or sublimation pressure", "setting": "463.3 K", "result": "93.6 ± 0.8", "unit": "kPa"},
      {"measurement": "vapor or sublimation pressure", "setting": "464.2 K", "result": "93.9 ± 0.8", "unit": "kPa"}
    ]}
  ]
}
